According to US6362173B1, “Methods for treating psychosis associated with cocaine addiction with glucocorticoid receptor antagonists” (The Board of Trustees of the Leland Stanford Junior …, priority 1997, dated 2002):

Legend:
[1] = target: T1, glucocorticoid (GR) receptor (Homo sapiens, UniProt P04150); settings: cited from earlier work
T1 sequence (P04150 1-777): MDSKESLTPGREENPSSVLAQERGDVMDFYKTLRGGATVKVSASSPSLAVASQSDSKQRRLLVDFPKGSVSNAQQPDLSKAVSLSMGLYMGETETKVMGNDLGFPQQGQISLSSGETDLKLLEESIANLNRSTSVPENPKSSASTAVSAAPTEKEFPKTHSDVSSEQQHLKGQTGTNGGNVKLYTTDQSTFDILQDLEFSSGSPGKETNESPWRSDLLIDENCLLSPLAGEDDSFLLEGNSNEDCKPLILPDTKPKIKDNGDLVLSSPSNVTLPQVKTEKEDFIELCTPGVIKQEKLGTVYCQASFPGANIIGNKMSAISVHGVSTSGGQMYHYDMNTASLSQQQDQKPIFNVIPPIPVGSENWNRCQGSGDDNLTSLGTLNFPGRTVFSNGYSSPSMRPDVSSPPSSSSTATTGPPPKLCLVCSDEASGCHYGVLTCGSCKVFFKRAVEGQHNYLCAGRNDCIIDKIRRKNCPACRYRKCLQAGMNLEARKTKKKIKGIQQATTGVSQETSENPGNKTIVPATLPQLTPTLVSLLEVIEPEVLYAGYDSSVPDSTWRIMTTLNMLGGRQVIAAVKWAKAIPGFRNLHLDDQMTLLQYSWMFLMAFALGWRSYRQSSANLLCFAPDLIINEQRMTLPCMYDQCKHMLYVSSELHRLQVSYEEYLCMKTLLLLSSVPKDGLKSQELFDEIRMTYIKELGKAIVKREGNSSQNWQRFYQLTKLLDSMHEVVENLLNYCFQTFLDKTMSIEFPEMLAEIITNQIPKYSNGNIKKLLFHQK

[2] = system: patients with psychotic major depression; test: Double-blind placebo-controlled cross-over study of mifepristone in psychotic major depression; assay type: in vivo, human
Excerpt: The study requires a nine day, closely observed hospital stay. Individuals included in this study were diagnosed as psychotic depressives using criteria as set forth by the DSM-IV, as described above. This diagnosis was confirmed by two psychiatrists. All are between the ages of 18 and 75. Apart from hypercortisolemia, they have no major medical problems. They have no signs of Cushings Syndrome. No […] of childbearing potential are included in the study. Individuals admitting to having used illicit drugs within a month prior to admission for the study are excluded. Individuals admitting to drinking in excess of two ounces of alcohol daily are excluded from the study. No anti-psychotic medication was taken within three days of entering the study. While, concurrent anti-depressant was not a criteria used to excluded anyone from the study, no individual was started on an anti-depressant medication while participating in the study. All patients gave their written consent to a protocol approved by the Human Subjects Committee at Stanford University Medical Center. All participants were given the Hamilton Rating Scale for Depression (HAM-D, Hamilton (1962) J. Neurol. Psychiatry, supra, discussed above) and the Structured Clinical Interview for DSM-IV Axis I mood disorders tests (as described above). Only individuals with a score greater than 21 on the HAM-D test continued in the study (a HAM-D score of >21 indicates moderate to severe depression). […] Formal psychiatric assessment, including the HAM-D rating scale (Overall (1962) supra; Kaplan (1995), supra, discussed above), the Brief Psychiatric Rating Scale (BPRS) (Overall (1962) supra; Kaplan (1995), supra, discussed above) and the […] (GAF) evaluation (DSM-IV, supra, pages 30 to 31; Kaplan, ed. (1995), supra) was carried out on days one, three, five, seven and nine of the study at 10:00 AM (at 1000 hours). A paragraph recall test (see below) was given at 11:30 AM (at 1130 hours) on days one, five and nine. Cortisol levels were measured serially every half hour from […] to 4:00 PM (1300 to 1600 hours) on days one, five and nine. Plasma ACTH and Plasma HVA was measured serially every hour from 1300 to 1600 on days one, five and nine. Routine biological and hematological studies were conducted daily, particularly to screen for evidence of relative adrenal insufficiency, i.e., hypoglycemia, eosinophilia. One means used to assess/measure improvement, or amelioration of psychosis in the study was the “Wallach Recognition Test” (a paragraph recall test). Newly evaluated individuals with an initial diagnosis of psychotic major depression, diagnosed as described above, were given a recognition task adapted from Wallach (1980) supra. Subjects listened to a taped recording of a sixteen-word list presented at the rate of one word every ten seconds. The-subject repeats each of the sixteen words and is asked to think of what the words mean to them. Following the presentation of the list, the subject engages in a twenty minute motor distraction task. The subject then listens to a fifty-word list containing the sixteen original target words plus thirty-four background distraction words. The subject then is asked to discern between target words and distractors. Sixteen newly admitted patients with an admitting diagnosis of psychotic major depression confirmed by two psychiatrists were enrolled in the study. Each patient conformed with all of the above described criteria. […] In the patients administered mifepristone, three two hundred milligram tablets per day were given for four days. […] The tablets were manufactured by Shanghai HuaLian Pharmaceuticals Co., Ltd., Shanghai, China (currently the sole commercial source of RU486). Both patients and the investigators are “blind” as to which compound (test mifepristone or placebo) the patient received.

[3] = one study; cited from earlier work
[4] = system: patients with chronic severe depression; settings: about 2.5 to 4.4 mg/kg per day, up to eight weeks; four patients; cited from earlier work
[5] = target: T2, progesterone receptor (Homo sapiens, UniProt P06401); settings: cited from earlier work
T2 sequence (P06401 1-933): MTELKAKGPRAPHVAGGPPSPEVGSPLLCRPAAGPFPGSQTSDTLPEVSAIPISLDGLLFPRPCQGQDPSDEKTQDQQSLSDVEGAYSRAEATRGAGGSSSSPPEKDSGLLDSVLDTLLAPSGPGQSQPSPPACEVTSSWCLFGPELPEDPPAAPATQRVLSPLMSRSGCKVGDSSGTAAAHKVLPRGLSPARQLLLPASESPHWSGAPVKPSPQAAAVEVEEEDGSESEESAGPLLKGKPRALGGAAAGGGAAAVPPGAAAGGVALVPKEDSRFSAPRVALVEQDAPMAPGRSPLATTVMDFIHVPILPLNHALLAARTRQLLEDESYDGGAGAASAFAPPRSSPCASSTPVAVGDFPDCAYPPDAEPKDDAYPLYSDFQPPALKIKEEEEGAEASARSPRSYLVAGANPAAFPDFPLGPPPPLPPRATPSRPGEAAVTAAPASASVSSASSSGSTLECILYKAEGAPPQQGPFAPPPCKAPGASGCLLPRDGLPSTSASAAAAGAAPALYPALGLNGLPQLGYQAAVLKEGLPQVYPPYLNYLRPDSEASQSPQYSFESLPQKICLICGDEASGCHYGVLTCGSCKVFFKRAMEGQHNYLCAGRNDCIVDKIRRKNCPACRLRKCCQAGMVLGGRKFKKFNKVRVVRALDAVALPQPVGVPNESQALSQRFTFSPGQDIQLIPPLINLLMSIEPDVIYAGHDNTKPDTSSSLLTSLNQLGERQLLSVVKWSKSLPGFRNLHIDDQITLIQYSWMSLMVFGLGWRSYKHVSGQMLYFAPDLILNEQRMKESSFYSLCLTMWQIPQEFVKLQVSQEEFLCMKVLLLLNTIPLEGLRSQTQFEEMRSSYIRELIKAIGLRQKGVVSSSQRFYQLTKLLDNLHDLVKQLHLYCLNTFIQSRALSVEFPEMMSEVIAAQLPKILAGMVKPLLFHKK

[6] = system: patients with severe Cushing Syndrome; settings: 400 to 800 mg per day; adrenal cancers and ectopic ACTH secretion from lung cancer; cited from earlier work

| Compound | GR antagonist activity [1] | adverse effects reported by patient or observed by raters or staff ([2]; 600 mg per day orally, four days) | psychiatric condition ([2]; 600 mg per day orally, four days, three patients completed, blind not broken) | Wallach Recognition Test: amelioration of psychosis ([2]; all individuals who received mifepristone) | HAM-D score after treatment ([2]; average, score after decline) | HAM-D score before treatment ([2]; average, starting score) | Brief Psychiatric Rating Scale (BPRS) score after treatment ([2]; score after decline) | Clinical Global Impression (CGI scale) score after treatment ([2]; score after drop, mildly depressed) | Brief Psychiatric Rating Scale (BPRS) score before treatment ([2]; starting score) | Clinical Global Impression (CGI scale) score before treatment ([2]; starting score, indicating markedly depressed) | fraction of the daily dose excreted in the urine [3] | response to treatment [4] | progesterone receptor antagonist activity [5] | effect on acute psychosis [6] |
| --- | --- | --- | --- | --- | --- | --- | --- | --- | --- | --- | --- | --- | --- | --- |
| CC#C[C@]1(O)CC[C@H]2[C@@H]3CCC4=CC(=O)CCC4=C3[C@@H](c3ccc(OCCN(C)C)cc3)C[C@@]21C [RU009, 11-beta-(4 dimethyl-amninoethoxyphenyl)-17-alpha-(propynyl-17beta-hydroxy-4,9-estradien-3-one)] | GR antagonist effects |  |  |  |  |  |  |  |  |  |  |  |  |  |
| CC#C[C@]1(O)CC[C@H]2[C@@H]3CCC4=CC(=O)CCC4=C3[C@@H](c3ccc(N(C)C)cc3)C[C@@]21C [mifepristone, 17-beta-hydroxy-11-beta-(4-dimethyl-aminophenyl)-17-alpha-(1-propynyl)-estra-4,9-dien-3-one] | powerful antagonist | no adverse effects | significant improvement | showed an amelioration of their psychosis | about 13.5 | about 26 | about 29.5 | about 3 | about 40.5 | about 5 | less than 0.5% | responded to treatment | powerful antagonist | useful in rapidly reversing acute psychosis |
